# Results taken from US20160213639A1, “COMPOSITIONS AND METHODS FOR TREATING NON-ALCOHOLIC STEATOHEPATITIS” (MOCHIDA PHARMACEUTICAL CO., LTD., priority 2013, published 2016).
# What was measured:
# [1] = test system: CYP450; conditions: at free concentrations observed in humans; cited from earlier work
# [2] = test system: diet-induced hepatic steatosis model; assay: Mouse diet-induced hepatic steatosis model; assay type: in vivo; conditions: repeat oral administration at >0.1 mg/g
# [3] = Gastric fluid levels in pylorus-ligated rats; assay type: in vivo; conditions: 3000 mg/kg oral dose
# [4] = ADME of 14C-EPA-E in rats (absorption, distribution, metabolites, excretion); assay type: in vivo
# Protocol: EPADEL® is a product containing ethyl all-cis-5,8,11,14,17-eicosapentaenoate (EPA-E), one of the n-3 essential fatty acids. The preclinical absorption, distribution, metabolism and excretion (ADME) characteristics of EPA-E have been determined primarily in rats.
# After administration of ^14C-EPA-E into the ligated intestine of rats, the residual radioactivity in the intestine at 24 hours was only 4.6% of the administered dose. Radioactivity transferred to the plasma and lymph was mainly detected in the triglyceride (TG) fraction in the early phase after dosing, while distribution to the free fatty acid (FFA) fraction was slight at all timepoints. […] Orally administered EPA-E was primarily incorporated in adrenal gland lipids as cholesterol esters of the fatty acids eicosapentaenoic acid (EPA), docosapentaenoic acid (DPA) and docosahexaenoic acid (DHA).
# (§1) Consequently, when EPA-E is administered orally to humans, it would appear that it is well absorbed, even though the unchanged ethyl ester form is not detected, and the free form (EPA) is only detected at a very low level, in the blood. Due to this absorption mechanism of essential fatty acids, the administered EPA-E exists as a blood-constituent fatty acid in the total lipids. In fact, according to the approval package document of Lovaza®, the free form of EPA is undetectable in the circulation (<1 μM) following an oral dose of 4 g of Omacor® (a mixture of the ethyl esters of EPA and DHA) Following oral administration of EPA-E, EPA, DPA and DHA were isolated and identified as metabolites in tissues and plasma. EPA, DPA and DHA were incorporated into TG and PL. Radioactivity was primarily excreted in expired air (44%) after single oral administration at 30 mg/kg EPA-E with minimal excretion in bile and urine (˜3%) and approximately 20% excreted in feces.
# Renal excretion was the elimination route for several minor highly polar metabolites (<0.4%), but EPA-E, EPA, DPA or DHA were not detected in the urine. In feces, EPA-E and EPA, evidently derived from the unabsorbed drug, were detected; however, no DPA or DHA was detected in the feces.
# In the total lipid fraction of the liver, the radioactivity originated mainly from EPA, DPA and DHA. Thus, it is considered that EPA, DPA and DHA are the predominant metabolites of ^14C-EPA-E in tissues, as constituent fatty acids of the total lipid fraction.
# [5] = test system: galactosamine-induced steatohepatitis mouse model; assay: Galactosamine-induced steatohepatitis mouse model; assay type: in vivo; conditions: oral administration at 1000 mg/kg; by suppressing triglyceride accumulation
# [6] = test system: NASH; assay: Phase II NASH trial: liver histology (NAS, steatosis, ballooning, inflammation, fibrosis); assay type: in vivo, human; conditions: for subjects who met the primary endpoint: 12 months, p=ns vs placebo (20); for mean decrease in NAS: placebo 0.9, p=n.s.; for subjects with a decrease in NAS by more than 2 points: placebo sixteen, p=n.s.
# Excerpt: (§2) This example provides the protocol used for an ongoing phase II clinical trial, double blind, placebo-controlled study to investigate the safety, efficacy, and pharmacokinetic profile of two doses of EPA-E in subjects with NASH. Up to 70 subjects were enrolled into each treatment arm, for a total of 210 subjects to be enrolled. Block randomization using an interactive voice response system (IVRS) was used to assign patients in a 1:1:1 ratio to two active doses and placebo. Patients were stratified at randomization by presence or absence of diabetes. Patients with diabetes comprised no more than 25% of the total number of patients enrolled. Subjects were treated with 600 mg EPA-E, 900 mg EPA-E or placebo three times a day for one year.
# In order to support the trial, EPA-E capsules and matching placebo capsules were prepared. EPA-E capsule is an oval soft gelatin capsule containing 300 mg of EPA-E as an active ingredient. […] These capsules are unidentifiable as EPA-E capsules or placebo capsules.
# Subjects were administered orally 3 capsules 3 times daily, immediately after meals.
# Adult subjects with biopsy-confirmed NASH within six months prior to randomization or those with suspected NASH were screened for the study. […] The histology was assessed using the NASH CRN criteria. The histological entry criteria included (1) the presence of possible or definite steatohepatitis, and (2) a NAFLD activity score (NAS) ≧4 with a minimum score of 1 each for steatosis and inflammation plus either ballooning or at least stage 1a sinusoidal fibrosis. The nonalcoholic nature of the disease was defined by a history of consumption of less than 3 drinks daily (approximately 10 gm alcohol/drink) for the previous 5 years. Those who exceeded these limits at the time of randomization or for more than 3 consecutive months within the five year time frame were excluded.
# The liver biopsies from subjects being considered for the trial were sent to a central pathology laboratory where they were read and scored. A total of 4 pathologists with experience in liver histopathology reviewed the biopsies. All the pathologists underwent a training session conducted by the lead pathologist (OWC) prior to the study. After slide quality assessment, the cases were randomly assigned to 2 reviewers who scored fatty change, lobular inflammation, hepatocyte ballooning and fibrosis as previously described. If there was a discrepancy between any of these evaluations, a third randomly assigned reviewer agreed with one of the choices thereby producing a single concordant NAS and fibrosis score for the biopsy.
# (§3) Following confirmation of eligibility based on both inclusion and exclusion criteria, subjects were randomized to receive placebo or one of two doses of EPA-E (1800 mg/day or 2700 mg/day) in three divided doses daily. Block randomization using an interactive voice response system was used to assign subjects in a 1:1:1 ratio between the three arms. Subjects were stratified by the presence of diabetes, impaired glucose tolerance or metabolic syndrome on stable doses of medication. The total fraction of such individuals was capped at 40% of the study cohort.
# (§4) All subjects were followed according to a predefined clinic schedule. Data from unscheduled visits were collected in separate forms. Following twelve months of treatment, all subjects underwent a protocol-driven liver biopsy. Study drug was then discontinued.
# The primary one-year efficacy endpoint was a composite of either a NAS <3 without worsening of fibrosis or a drop in NAS by 2 or more with contribution from more than one parameter and no worsening of fibrosis. The proportions of subjects meeting this endpoint after 12 months of treatment in those receiving EPA-E were compared to those receiving placebo using the Cochrane-Armitage trend test. A short-term efficacy endpoint was changes from baseline in alanine aminotransferase at 3 and 6 months. This was assessed by analysis of covariance. […]
# [7] = Safety pharmacology studies; assay type: in vivo; conditions: oral doses up to 3000 mg/kg
# [8] = Phase II NASH trial: safety analysis; assay type: in vivo, human; conditions: over the course of the study, all arms
# Excerpt: as §2, with “year. […]” for “year.”
# The primary one-year efficacy endpoint was a composite of either a NAS <3 without worsening of fibrosis or a drop in NAS by 2 or more with contribution from more than one parameter and no worsening of fibrosis. […] This was assessed by analysis of covariance. Secondary endpoints included changes in the individual histological parameters related to NAFLD, overall NAS, liver enzymes and function, hemoglobin A1C, acute phase reactants, insulin sensitivity as measured by the homeostatic model (HOMA-IR), levels of cytokeratin 18 (CK18), hyaluronic acid, type IV collagen (7S domain), procollagen III peptide and key cytokines. […]
# [9] = Lipid lowering in animal models; assay type: in vivo; conditions: rats, hamsters and rabbits
# [10] = test system: NASH; assay: Phase II NASH trial: laboratory parameters and circulating markers; assay type: in vivo, human
# Excerpt: as §2, §3, §4
# The primary one-year efficacy endpoint was a composite of either a NAS <3 without worsening of fibrosis or a drop in NAS by 2 or more with contribution from more than one parameter and no worsening of fibrosis. The proportions of subjects meeting this endpoint after 12 months of treatment in those receiving EPA-E were compared to those receiving placebo using the Cochrane-Armitage trend test. A short-term efficacy endpoint was changes from baseline in alanine aminotransferase at 3 and 6 months. This was assessed by analysis of covariance. Secondary endpoints included changes in the individual histological parameters related to NAFLD, overall NAS, liver enzymes and function, hemoglobin A1C, acute phase reactants, insulin sensitivity as measured by the homeostatic model (HOMA-IR), levels of cytokeratin 18 (CK18), hyaluronic acid, type IV collagen (7S domain), procollagen III peptide and key cytokines. Proportions of subjects meeting categorical endpoints were compared using the Cochrane-Armitage test for trend. Numerical scores were compared using Wilcoxon 2-sample tests. Safety-related endpoints included adverse events including hematological-, biochemical-, renal- and EKG-related abnormalities. These were enumerated.
# [11] = test system: methionine-choline deficient diet rat model of nonalcoholic steatohepatitis; assay: Methionine-choline deficient diet rat model of nonalcoholic steatohepatitis; assay type: in vivo; conditions: repeat oral administration at 1000 mg/kg
# [12] = Elasticity of arteries; assay type: in vivo; conditions: rabbits
# [13] = test system: platelets; assay: Platelet anti-aggregation; assay type: cell-based; conditions: platelets from rats, rabbits and humans
# [14] = parameters: species or system dogs; conditions: dog, in vivo, po, 30 mg/kg, 1 week
# Protocol: as §1
# [15] = Hydrolysis in small intestine homogenates, lymph, plasma and liver homogenates; assay type: in vitro ADME; conditions: plasma and liver homogenates of the rat
# [16] = single oral administration at 30 mg/kg
compound,measurement,setting,value
"CC/C=C\C/C=C\C/C=C\C/C=C\C/C=C\CCCC(=O)O [EPA, eicosapentaenoic acid]",CYP450 inhibition,[1],unlikely to inhibit CYP450
"CC/C=C\C/C=C\C/C=C\C/C=C\C/C=C\CCCC(=O)OCC [EPA-E, ethyl all-cis-5,8,11,14,17-eicosapentaenoate]",fat accumulation,[2],suppressed fat accumulation
same,hepatic SREBP-1c levels,[2],suppressing hepatic SREBP-1c levels
same,gastric fluid levels,[3],reduction in gastric fluid levels
same,radioactivity excreted in expired air,"[4]; rat, in vivo, po, 30 mg/kg",44%
same,radioactivity excreted in bile and urine,[4]; [16],~3%
same,radioactivity excreted in feces,[4]; [16],approximately 20%
same,progression of steatohepatitis,[5],retarded progression of steatohepatitis
same,distribution of fibrosis scores,"[6]; any of the treatment arms, over the duration of the study",no significant changes in the distribution of fibrosis scores
same,steatosis grade,"[6]; cohort as a whole, low dose and high dose, efficacy evaluable dataset",Neither low dose-nor high dose-EPA-E affected the steatosis grade significantly
same,subjects who met the primary endpoint,[6]; high dose EPA-E (2700 mg/day),22 subjects
same,mean decrease in NAS,[6]; high dose EPA-E (2700 mg/day),0.8
same,subjects with a decrease in NAS by more than 2 points,[6]; high dose EPA-E (2700 mg/day),18 subjects
same,subjects who met the primary endpoint,[6]; low dose EPA-E (1800 mg/day),19 subjects
same,mean decrease in NAS,[6]; low dose EPA-E (1800 mg/day),1
same,subjects with a decrease in NAS by more than 2 points,[6]; low dose EPA-E (1800 mg/day),16 subjects
same,cytological ballooning and lobular inflammation scores,"[6]; low dose and high dose, efficacy evaluable dataset",not significantly altered
same,increased likelihood of beneficial impact on overall NAS score,"[6]; women <50, 1800 mg/day vs placebo, adjusted, p<0.03",10 fold
same,increased likelihood of beneficial impact on steatosis grade,"[6]; women <50, 1800 mg/day vs placebo, adjusted, p<0.04",8 fold
same,increased likelihood of beneficial impact on overall NAS score,"[6]; women <50, 2700 mg/day vs placebo, adjusted, p<0.04",7 fold
same,"odds ratio, beneficial impact in steatosis","[6]; women under 50 years of age, low dose EPA-E vs placebo, adjusted for baseline histology, BMI and changes in BMI, p=0.03",7.9
same,"odds ratio, beneficial impact in overall NAS","[6]; women under 50 years of age, low dose EPA-E vs placebo, adjusted, p=0.02",10.5
same,"odds ratio, beneficial impact in overall NAS","[6]; women under 50 years of age, second value (dose group not given), adjusted, p=0.03",6.8
same,"effect on central nervous, autonomic nervous, respiratory and cardiovascular systems",[7],"no effect on the central nervous, autonomic nervous, respiratory and cardiovascular systems"
same,deaths,[8],No deaths occurred
same,lipids,[9],lower lipids
same,body mass index,[10]; across groups,remained similar across groups
same,"AST, ALT or GGT","[10]; baseline to end of study, FIG. 8",no significant changes
same,HgbA1C or circulating fasting insulin concentrations,[10]; either active treatment arm compared to placebo,no significant changes
same,change in serum triglycerides,"[10]; high dose EPA-E, placebo 11.5±50.9, p<0.05, Wilcoxon rank sum test",−4.9±116.0
same,change in serum ALT,"[10]; high dose EPA-E, placebo −24.1±48.3, p<0.05, Wilcoxon rank sum test",−3.2±51.5
same,hepatic synthetic functions,[10]; over the course of the study,did not change over the course of the study and remained stable
same,fibrosis,[11],inhibited fibrosis
same,elasticity of arteries,[12],preserve the elasticity of arteries
same,effects on platelets,[13],anti-aggregation effects
CC/C=C\C/C=C\C/C=C\C/C=C\C/C=C\CCCC(=O)OCC [^14C-EPA-E],residual radioactivity in the intestine,"[4]; administration into the ligated intestine of rats, at 24 hours",4.6 % of the administered dose
same,unchanged EPA-E in plasma or tissues,[4]; oral administration to the rat,no unchanged EPA-E was found
same,metabolites in the total lipid fraction of plasma and tissues,"[4]; oral administration to the rat, liver, fat, heart and brain","EPA, DPA and DHA were detected as metabolites"
same,distribution of radioactivity in body tissues,[4]; rats,"relatively high levels were observed especially in the brown fat, adrenal, liver and pancreas"
same,absorption,"[4]; single oral dose 30-1000 mg/kg, rats","well-absorbed, mainly through the lymphatic route"
same,radioactivity excreted in the urine,[14],1.0%
same,radioactivity recovered in the feces,[14],19.2%
same,hydrolysis,[15],hydrolyzed rapidly
